According to patent US8791148B2, “Substituted benzimidazolone derivatives, medicaments comprising them and their use” (AbbVie Deutschland GmbH & Co. KG, priority 2006, dated 2014):

Each compound was assayed against T1, human vasopressin V1b receptor (Homo sapiens, UniProt P47901) (assay: Vasopressin V1b receptor binding assay). Conditions: membranes from CHO-K1 cells with stably expressed human V1b receptors; displacement of 1.5 nM 3H-AVP; read-out: V1b receptor affinity (affinity constant Ki).
T1 construct: expressed in transfected cells; host or cells: CHO-K1 (cell line hV1b-3H2_CHO), membrane preparation
T1 sequence (P47901 1-424): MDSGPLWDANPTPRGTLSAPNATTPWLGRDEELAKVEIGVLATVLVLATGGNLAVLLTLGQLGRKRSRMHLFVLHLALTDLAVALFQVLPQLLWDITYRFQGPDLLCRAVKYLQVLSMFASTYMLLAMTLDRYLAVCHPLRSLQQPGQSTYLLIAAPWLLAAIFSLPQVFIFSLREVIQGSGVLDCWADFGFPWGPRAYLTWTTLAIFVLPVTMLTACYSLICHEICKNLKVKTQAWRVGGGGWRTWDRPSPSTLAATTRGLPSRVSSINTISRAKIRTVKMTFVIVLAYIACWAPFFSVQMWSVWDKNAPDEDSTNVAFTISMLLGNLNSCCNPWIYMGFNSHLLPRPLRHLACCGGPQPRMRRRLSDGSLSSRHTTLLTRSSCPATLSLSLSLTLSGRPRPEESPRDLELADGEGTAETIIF
Outline: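 Ki values come from nonlinear regression of triplicate scintillation counts after filtration. Test compound (2% DMSO in the mixture) and radioligand were incubated 60 min at room temperature with human V1b membranes in pH 7.4 Tris buffer with 10 mM MgCl2 and 0.1% BSA. Nonspecific binding was set with 1 uM AVP.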
With COc1ccc(S(=O)(=O)n2c(=O)n(C(C(=O)N3CCN(C4CCN(C)CC4)CC3)c3ccccc3)c3cc(C#N)ccc32)c(OC)c1 (stereo not drawn) [Example 10, 1-(2,4-Dimethoxybenzenesulfonyl)-3-{2-[4-(1-methylpiperidin-4-yl)piperazin-1-yl]-2-oxo-1-phenylethyl}-2-oxo-2,3-dihydro-1H-benzimidazole-5-carbonitrile] the Ki was 500 to 10000 nM. With COc1ccc(S(=O)(=O)n2c(=O)n(C(C(=O)N3CCN(C4CCN(C)CC4)CC3)c3ccccc3)c3ccc(Cl)cc32)cc1 (stereo not drawn) [Example 38, 5-Chloro-3-(4-methoxybenzenesulfonyl)-1-{2-[4-(1-methylpiperidin-4-yl)piperazin-1-yl]-2-oxo-1-phenylethyl}-1,3-dihydrobenzimidazol-2-one] the Ki was 100 to 500 nM. Work on O=C(C(c1ccccc1)n1c(=O)n(S(=O)(=O)c2cccc3cccnc23)c2cc(Cl)c(Cl)cc21)N1CCN(c2ccncc2)CC1 (stereo not drawn) [Example 40, 5,6-Dichloro-1-[2-oxo-1-phenyl-2-(4-pyridin-4-ylpiperazin-1-yl)ethyl]-3-(quinoline-8-sulfonyl)-1,3-dihydrobenzimidazol-2-one] yielded a Ki of 500 to 10000 nM. CCCN1CCN([C@H]2CCN(C(=O)C(c3ccccc3)n3c(=O)n(S(=O)(=O)c4ccc(C#N)cc4)c4ccc(C#N)cc43)C2)CC1 (stereo partly drawn) [Example 215, 1-(4-Cyano-benzenesulfonyl)-2-oxo-3-{2-oxo-1-phenyl-2-[(S)-3-(4-propylpiperazin-1-yl)-pyrrolidin-1-yl]ethyl}-2,3-dihydro-1H-benzoimidazole-5-carbonitrile] showed a Ki of 100 to 500 nM. COc1ccc(S(=O)(=O)n2c(=O)n(C(C(=O)N3CCCC3c3ccccc3)c3ccccc3)c3cc(Cl)ccc32)cc1 (stereo not drawn) [Example 83, 5-Chloro-1-(4-methoxybenzenesulfonyl)-3-[2-oxo-1-phenyl-2-(2-phenylpyrrolidin-1-yl)ethyl]-1,3-dihydrobenzimidazol-2-one] was tested, and the Ki was 500 to 10000 nM. For COc1ccc(S(=O)(=O)n2c(=O)n(C(C(=O)N3CC[C@@H](N4CCN(C)CC4)C3)c3ccccc3)c3cc(C#N)ccc32)cc1 (stereo partly drawn) [Example 162, 1-(4-Methoxybenzenesulfonyl)-3-{2-[(R)-3-(4-methylpiperazin-1-yl)-pyrrolidin-1-yl]-2-oxo-1-phenylethyl}-2-oxo-2,3-dihydro-1H-benzimidazole-5-carbonitrile], the Ki was 100 to 500 nM. For CCCN1CCN(C2CN(C(=O)C(c3ccccc3)n3c(=O)n(S(=O)(=O)c4ccc(OC)cc4)c4ccc(Cl)cc43)C2)CC1 (stereo not drawn) [Example 154, 5-Chloro-1-(4-methoxybenzenesulfonyl)-3-{2-oxo-1-phenyl-2-[3-(4-propylpiperazin-1-yl)azetidin-1-yl]ethyl}-1,3-dihydrobenzimidazol-2-one], the Ki was 100 to 500 nM. With CN1CCN(C2CCN(C(=O)C(c3ccccc3)n3c(=O)n(S(=O)(=O)c4ccc(C#N)cc4)c4ccc(Cl)cc43)CC2)CC1 (stereo not drawn) [Example 65, 4-(5-Chloro-3-{2-[4-(4-methylpiperazin-1-yl)piperidin-1-yl]-2-oxo-1-phenylethyl}-2-oxo-2,3-dihydrobenzimidazole-1-sulfonyl)benzonitrile] the Ki was 100 to 500 nM. Compound COc1ccc(S(=O)(=O)n2c(=O)n(C(C(=O)N3CCOCC3)c3ccccc3)c3cc(Cl)ccc32)cc1 (stereo not drawn) [Example 99, 5-Chloro-1-(4-methoxybenzenesulfonyl)-3-(2-morpholin-4-yl-2-oxo-1-phenylethyl)-1,3-dihydrobenzimidazol-2-one] has a Ki of 500 to 10000 nM. Compound COc1ccc(S(=O)(=O)n2c(=O)n(C(C(=O)N3CC(N4CCNCC4)C3)c3ccccc3)c3cc(Cl)ccc32)cc1 (stereo not drawn) [Example 148, 5-Chloro-1-(4-methoxybenzenesulfonyl)-3-[2-oxo-1-phenyl-2-(3-piperazin-1-ylazetidin-1-yl)ethyl]-1,3-dihydrobenzimidazol-2-one] has a Ki of 100 to 500 nM. CCCN1CCN(C2CCN(C(=O)C(c3ccc(OC)cc3)n3c(=O)n(S(=O)(=O)c4ccc(OC)cc4)c4ccc(Cl)cc43)C2)CC1 (stereo not drawn) [Example 78, 5-Chloro-1-(4-methoxybenzenesulfonyl)-3-{1-(4-methoxyphenyl)-2-oxo-2-[3-(4-propylpiperazin-1-yl)pyrrolidin-1-yl]ethyl}-1,3-dihydrobenzimidazol-2-one] was tested, and the Ki was less than 100 nM. For COc1ccc(S(=O)(=O)n2c(=O)n(C(C(=O)N3CC[C@H](CNC4CCN(C)CC4)C3)c3ccccc3)c3cc(C#N)ccc32)cc1 (stereo partly drawn) [Example 255, 1-(4-Methoxy-benzenesulfonyl)-3-(2-{(R)-3-[(1-methyl-piperidin-4-ylamino)-methyl]-pyrrolidin-1-yl}-2-oxo-1-phenyl-ethyl)-2-oxo-2,3-dihydro-1H-benzoimidazole-5-carbonitrile; compound with trifluoroacetic acid], the Ki was less than 100 nM. Compound COc1ccc(S(=O)(=O)n2c(=O)n(C(C(=O)NCCCN3CCOCC3)c3ccccc3)c3cc(Cl)ccc32)cc1 (stereo not drawn) [Example 113, 2-[6-Chloro-3-(4-methoxybenzenesulfonyl)-2-oxo-2,3-dihydrobenzimidazol-1-yl]-N-(3-morpholin-4-yl-propyl)-2-phenyl-acetamide] has a Ki of 500 to 10000 nM. CCCN1CCN([C@H]2CCN(C(=O)C(c3ccccc3)n3c(=O)n(S(=O)(=O)c4ccc(OCC(F)F)cc4)c4ccc(C#N)cc43)C2)CC1 (stereo partly drawn) [Example 233, 1-[4-(2,2-Difluoro-ethoxy)-benzenesulfonyl]-2-oxo-3-{2-oxo-1-phenyl-2-[(S)-3-(4-propyl-piperazin-1-yl)-pyrrolidin-1-yl]-ethyl}-2,3-dihydro-1H-benzoimidazole-5-carbonitrile] gave a Ki of less than 100 nM. Work on CN1CCC(N2CCN(C(=O)C(c3ccccc3)n3c(=O)n(S(=O)(=O)c4ccc(C#N)cc4)c4cc(Cl)ccc43)CC2)CC1 (stereo not drawn) [Example 39, 4-(6-Chloro-3-{2-[4-(1-methylpiperidin-4-yl)piperazin-1-yl]-2-oxo-1-phenylethyl}-2-oxo-2,3-dihydrobenzimidazole-1-sulfonyl)benzonitrile] yielded a Ki of 500 to 10000 nM. With COc1ccc(S(=O)(=O)n2c(=O)n(CC(=O)N3CCC(N4CCN(C)CC4)CC3)c3cc(Cl)ccc32)cc1 [Example 95, 5-Chloro-1-(4-methoxybenzenesulfonyl)-3-{2-[4-(4-methylpiperazin-1-yl)piperidin-1-yl]-2-oxo-ethyl}-1,3-dihydrobenzimidazol-2-one] the Ki was 500 to 10000 nM. Compound CN1CCC(N2CCN(C(=O)C(c3ccccc3)n3c(=O)n(S(=O)(=O)c4cccc5cccnc45)c4cc(Cl)c(Cl)cc43)CC2)CC1 (stereo not drawn) [Example 35, 5,6-Dichloro-1-{2-[4-(1-methylpiperidin-4-yl)piperazin-1-yl]-2-oxo-1-phenylethyl}-3-(quinoline-8-sulfonyl)-1,3-dihydrobenzimidazol-2-one] has a Ki of 500 to 10000 nM. For CCN(CC)CCN(C)C(=O)C(c1ccccc1)n1c(=O)n(S(=O)(=O)c2ccc(OC)cc2)c2ccc(Cl)cc21 (stereo not drawn) [Example 119, 2-[6-Chloro-3-(4-methoxybenzenesulfonyl)-2-oxo-2,3-dihydrobenzimidazol-1-yl]-N-(2-diethylaminoethyl)-N-methyl-2-phenylacetamide], the Ki was 100 to 500 nM. In the case of CCCN1CCN([C@H]2CCN(C(=O)C(c3ccccc3)n3c(=O)n(S(=O)(=O)c4cccc5cccnc45)c4ccc(C#N)cc43)C2)CC1 (stereo partly drawn) [Example 200, 2-oxo-3-{2-oxo-1-phenyl-2-[(S)-3-(4-propylpiperazin-1-yl)pyrrolidin-1-yl]-ethyl}-1-(quinoline-8-sulfonyl)-2,3-dihydro-1H-benzimidazole-5-carbonitrile], the Ki is reported as 500 to 10000 nM. CCCN1CCN(C2CCN(C(=O)C(c3cccc(OC)c3)n3c(=O)n(S(=O)(=O)c4ccc(OC)cc4)c4ccc(Cl)cc43)C2)CC1 (stereo not drawn) [Example 79, 5-Chloro-1-(4-methoxybenzenesulfonyl)-3-{1-(3-methoxyphenyl)-2-oxo-2-[3-(4-propylpiperazin-1-yl)pyrrolidin-1-yl]-ethyl}-1,3-dihydrobenzimidazol-2-one] gave a Ki of less than 100 nM. COc1ccc(C(C(=O)N2CCN(c3ccncc3)CC2)n2c(=O)n(S(=O)(=O)c3ccc(OC)cc3OC)c3ccc(Cl)cc32)cc1 (stereo not drawn) [Example 1, 5-Chloro-1-(2,4-dimethoxybenzenesulfonyl)-3-[1-(4-methoxyphenyl)-2-oxo-2-(4-pyridin-4-ylpiperazin-1-yl)ethyl]-1,3-dihydrobenzimidazol-2-one] was tested, and the Ki was 100 to 500 nM. COc1ccc(S(=O)(=O)n2c(=O)n(C(C(=O)N3CC[C@@H](CN4CCN(Cc5ccccc5)CC4)C3)c3ccccc3)c3cc(C#N)ccc32)cc1 (stereo partly drawn) [Example 221, 3-{2-[(S)-3-(4-Benzyl-piperazin-1-ylmethyl)-pyrrolidin-1-yl]-2-oxo-1-phenylethyl}-1-(4-methoxy-benzenesulfonyl)-2-oxo-2,3-dihydro-1H-benzoimidazole-5-carbonitrile; compound with trifluoroacetic acid] gave a Ki of less than 100 nM. Work on COc1ccc(S(=O)(=O)n2c(=O)n(C(C(=O)N3CCN(C4CCN(C)CC4)CC3)c3cccc(OC)c3)c3cc(Cl)ccc32)cc1 (stereo not drawn) [Example 19, 5-Chloro-1-(4-methoxybenzenesulfonyl)-3-{1-(3-methoxyphenyl)-2-[4-(1-methylpiperidin-4-yl)piperazin-1-yl]-2-oxo-ethyl}-1,3-dihydrobenzimidazol-2-one] yielded a Ki of 100 to 500 nM. Compound COc1ccc(S(=O)(=O)n2c(=O)n(C(C(=O)N3CCN(c4ccncc4)CC3)c3ccccc3)c3ccc(Cl)cc32)cc1 (stereo not drawn) [Example 73, 5-Chloro-3-(4-methoxybenzenesulfonyl)-1-[2-oxo-1-phenyl-2-(4-pyridin-4-ylpiperazin-1-yl)-ethyl]-1,3-dihydrobenzimidazol-2-one] has a Ki of 100 to 500 nM.
